Holding throughout (format): in vivo
The test system of experiment [1] is Echinochloa crus-galli (ECHCG). Briefly: Post-emergence Test, ECHCG. Particulars: sprayed after 8 days cultivation, 1000 g/ha, evaluated after 13 days. In a few lines: (§1)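 Pots sown with AMARE, SOLNI, SETFA, LOLPE, ECHCG, IPOHE, kept in glasshouse (24/16 °C, 14 h light, 65% humidity), sprayed at 1000 g/ha unless stated, in acetone/water 50:50 with 0.5% Tween 20. Damage scored after 13 days on a 0–5 scale (5=81–100%, 0=0%).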

Experiment [2] relates to ABUTH. Briefly: Pre-emergence Test, ABUTH. Particulars: 1000 g/ha, evaluated after 13 days.
In experiment [3] the test system is ABUTH. Briefly: Post-emergence Test, ABUTH. Particulars: sprayed after 8 days cultivation, 1000 g/ha, evaluated after 13 days.
For experiment [4], the system named is Echinochloa crus-galli (ECHCG). As to the kind of experiment: Pre-emergence Test, ECHCG. The following applies: 1000 g/ha, evaluated after 13 days.
Experiment [5] concerns Amaranthus retoflexus (AMARE). Briefly: Post-emergence Test, AMARE. Particulars: sprayed after 8 days cultivation, 1000 g/ha, evaluated after 13 days. A digest of the protocol: as §1
For experiment [6], the system named is ZEAMX. As to the kind of experiment: Pre-emergence Test, ZEAMX. The following applies: 1000 g/ha, evaluated after 13 days.
Experiment [7] relates to Ipornoea hederacea (IPOHE). Briefly: Pre-emergence Test, IPOHE. The following applies: 1000 g/ha, evaluated after 13 days.
The subject of experiment [8] is Ipornoea hederacea (IPOHE). As to the kind of experiment: Post-emergence Test, IPOHE. The following applies: sprayed after 8 days cultivation, 1000 g/ha, evaluated after 13 days. A digest of the protocol: as §1
The test system of experiment [9] is Setaria faberi (SETFA). Briefly: Post-emergence Test, SETFA. The following applies: sprayed after 8 days cultivation, 1000 g/ha, evaluated after 13 days. In a few lines: as §1
The test system of experiment [10] is Solarium nigrum (SOLNI). As to the kind of experiment: Pre-emergence Test, SOLNI. Particulars: 1000 g/ha, evaluated after 13 days.
The test system of experiment [11] is Solarium nigrum (SOLNI). As to the kind of experiment: Post-emergence Test, SOLNI. Particulars: sprayed after 8 days cultivation, 1000 g/ha, evaluated after 13 days. Here is the method: (§2) Seeds of a variety of test species are sown in standard soil in pots (Amaranthus retoflexus (AMARE), Solarium nigrum (SOLNI), Setaria faberi (SETFA), Lolium perenne (LOLPE), Echinochloa crus-galli (ECHCG), Ipornoea hederacea (IPOHE)). After 8 days cultivation under controlled conditions in a glasshouse (at 24° C./16° C., day/night; 14 hours light; 65% humidity), the plants are sprayed with an aqueous spray solution derived from the formulation of the technical active ingredient in acetone/water (50:50) solution containing 0.5% Tween 20 (polyoxyethylene sorbitan monolaurate, CAS RN 9005-64-5). Compounds are applied at 1000 g/ha unless otherwise stated. The test plants are then grown in a glasshouse under controlled conditions in a glasshouse (at 24° C./16° C., day/night; 14 hours light; 65% humidity) and watered twice daily. After 13 days the test is evaluated for the percentage damage caused to the plant. The biological activities are shown in the following table on a five-point scale (5=81-100%; 4=61-80%; 3=41-60%; 2=21-40%; 1=10-20%; 0=0%; −=not tested).

The test system of experiment [12] is Amaranthus retoflexus (AMARE). Briefly: Pre-emergence Test, AMARE. Particulars: 1000 g/ha, evaluated after 13 days.
The test system of experiment [13] is Lolium perenne (LOLPE). Briefly: Post-emergence Test, LOLPE. The following applies: sprayed after 8 days cultivation, 1000 g/ha, evaluated after 13 days. Here is the method: as §2
The subject of experiment [14] is Setaria faberi (SETFA). As to the kind of experiment: Pre-emergence Test, SETFA. Particulars: 1000 g/ha, evaluated after 13 days.
In experiment [15] the test system is Lolium perenne (LOLPE). As to the kind of experiment: Pre-emergence Test, LOLPE. The following applies: 1000 g/ha, evaluated after 13 days.
Experiment [16] concerns ZEAMX. Briefly: Post-emergence Test, ZEAMX. The following applies: sprayed after 8 days cultivation, 1000 g/ha, evaluated after 13 days.

Turning to `C=C(OCC)c1cccc2c1c(=O)c(C(=O)OC)nn2-c1ccc(OC(F)(F)F)cc1` [Compound P3, methyl 5-(1-ethoxyvinyl)-4-oxo-1-[4-(trifluoromethoxy)phenyl] cinnoline-3-carboxylate], the “percentage damage caused to the plant, ECHCG” value in experiment [1] and in experiment [4] was 4 (4=61-80%) each time. In addition, the “percentage damage caused to the plant, ABUTH” value with ABUTH [2] and in the experiment on ABUTH [3] was 3 (3=41-60%) in each case. Besides, the entries for the “percentage damage caused to the plant, AMARE” value in experiment [5] and in [12] were 1 (1=10-20%) and 0 (0=0%), respectively. Besides, the “percentage damage caused to the plant, ZEAMX” value in the experiment on ZEAMX [6] was 4 (4=61-80%); in the experiment with ZEAMX [16], 3 (3=41-60%). Also, the entries for the “percentage damage caused to the plant, IPOHE” value in [7] and in [8] were 2 (2=21-40%) and 3 (3=41-60%), respectively. In addition, the “percentage damage caused to the plant, SETFA” value in the experiment on Setaria faberi (SETFA) [9] was 4 (4=61-80%); in the experiment on Setaria faberi (SETFA) [14], 5 (5=81-100%). Besides, the “percentage damage caused to the plant, SOLNI” value with Solarium nigrum (SOLNI) [10] is on record as 2 (2=21-40%); with Solarium nigrum (SOLNI) [11], 4 (4=61-80%). For the same molecule, the “percentage damage caused to the plant, LOLPE” value in the experiment on Lolium perenne (LOLPE) [13] and in the experiment on Lolium perenne (LOLPE) [15] was 4 (4=61-80%) each time.

Take `CO/N=C(\C)c1cccc2c1c(=O)c(C(=O)O)nn2-c1ccc(OC(F)(F)F)cc1` [Compound P2, 5-[(E)-N-methoxy-C-methyl-carbonimidoyl]-4-oxo-1-[4-(trifluoromethoxy)phenyl] cinnoline-3-carboxylic acid]: the “percentage damage caused to the plant, ECHCG” value in [1] is listed as 4 (4=61-80%); in [4] it was 5 (5=81-100%). For the same molecule, the “percentage damage caused to the plant, ABUTH” value was 3 (3=41-60%) in the experiment with ABUTH [2] and 4 (4=61-80%) in the experiment on ABUTH [3]. Also, the “percentage damage caused to the plant, AMARE” value is recorded as 1 (1=10-20%) in [5] and 0 (0=0%) in experiment [12]. Besides, the entries for the “percentage damage caused to the plant, ZEAMX” value in the experiment on ZEAMX [6] and in the experiment on ZEAMX [16] were 4 (4=61-80%) and 3 (3=41-60%), respectively. For the same molecule, the “percentage damage caused to the plant, IPOHE” value in [7] was 2 (2=21-40%); in experiment [8] it was 3 (3=41-60%). Also, the “percentage damage caused to the plant, SETFA” value is 4 (4=61-80%) in the experiment on Setaria faberi (SETFA) [9] and 5 (5=81-100%) in the experiment on Setaria faberi (SETFA) [14]. Moreover, the “percentage damage caused to the plant, SOLNI” value in the experiment on Solarium nigrum (SOLNI) [10] and with Solarium nigrum (SOLNI) [11] was 2 (2=21-40%) throughout. Also, the “percentage damage caused to the plant, LOLPE” value was 3 (3=41-60%) in the experiment with Lolium perenne (LOLPE) [13] and 4 (4=61-80%) in the experiment on Lolium perenne (LOLPE) [15].

For `C=C(OC)c1cccc2c1c(=O)c(C(=O)OC)nn2-c1ccc(OC(F)(F)F)cc1` [Compound P4, methyl 5-(1-methoxyvinyl)-4-oxo-1-[4-(trifluoromethoxy)phenyl] cinnoline-3-carboxylate], the results for the “percentage damage caused to the plant, ECHCG” value in experiment [1] and in [4] were 4 (4=61-80%) and 5 (5=81-100%), respectively. Also, the “percentage damage caused to the plant, AMARE” value in experiment [5] and in experiment [12] was 0 (0=0%) each time. The figures for the “percentage damage caused to the plant, IPOHE” value in experiment [7] and in experiment [8] were 0 (0=0%) and 4 (4=61-80%), respectively. The “percentage damage caused to the plant, SETFA” value in the experiment with Setaria faberi (SETFA) [9] is recorded as 4 (4=61-80%); in the experiment on Setaria faberi (SETFA) [14] it was 5 (5=81-100%). The “percentage damage caused to the plant, SOLNI” value with Solarium nigrum (SOLNI) [10] and with Solarium nigrum (SOLNI) [11] was 0 (0=0%) in each case. Also, the “percentage damage caused to the plant, LOLPE” value in the experiment with Lolium perenne (LOLPE) [13] was 4 (4=61-80%); in the experiment on Lolium perenne (LOLPE) [15] it was 5 (5=81-100%).

As to `COC(=O)c1nn(-c2ccc(OC(F)(F)F)cc2)c2cccc(C#N)c2c1=O` [Compound P7, methyl 5-cyano-4-oxo-1-[4-(trifluoromethoxy)phenyl] cinnoline-3-carboxylate], the “percentage damage caused to the plant, ECHCG” value in [1] is recorded as 1 (1=10-20%); in experiment [4], 2 (2=21-40%). Further, the “percentage damage caused to the plant, AMARE” value was 1 (1=10-20%) in experiment [5] and 0 (0=0%) in experiment [12]. In addition, the “percentage damage caused to the plant, IPOHE” value in [7] and in experiment [8] was 0 (0=0%) each time. The “percentage damage caused to the plant, SETFA” value in the experiment with Setaria faberi (SETFA) [9] and in the experiment on Setaria faberi (SETFA) [14] was 1 (1=10-20%) each time. In addition, the figures for the “percentage damage caused to the plant, SOLNI” value in the experiment with Solarium nigrum (SOLNI) [10] and in the experiment on Solarium nigrum (SOLNI) [11] were 0 (0=0%) and 2 (2=21-40%), respectively. Also, the “percentage damage caused to the plant, LOLPE” value in the experiment on Lolium perenne (LOLPE) [13] and in the experiment on Lolium perenne (LOLPE) [15] was 0 (0=0%) throughout.

With `O=C(O)c1nn(-c2ccc(OC(F)(F)F)cc2)c2cccc(-c3ncco3)c2c1=O` [Compound P5, 5-oxazol-2-yl-4-oxo-1-[4-(trifluoromethoxy)phenyl] cinnoline-3-carboxylic acid], the “percentage damage caused to the plant, ECHCG” value in experiment [1] was 3 (3=41-60%); in [4], 0 (0=0%). The “percentage damage caused to the plant, AMARE” value in experiment [5] was 1 (1=10-20%); in experiment [12], 0 (0=0%). Besides, the “percentage damage caused to the plant, IPOHE” value in experiment [7] and in [8] was 0 (0=0%) throughout. The “percentage damage caused to the plant, SETFA” value in the experiment on Setaria faberi (SETFA) [9] is reported as 4 (4=61-80%); in the experiment with Setaria faberi (SETFA) [14], 1 (1=10-20%). The entries for the “percentage damage caused to the plant, SOLNI” value in the experiment with Solarium nigrum (SOLNI) [10] and with Solarium nigrum (SOLNI) [11] were 0 (0=0%) and 2 (2=21-40%), respectively. Further, the results for the “percentage damage caused to the plant, LOLPE” value with Lolium perenne (LOLPE) [13] and with Lolium perenne (LOLPE) [15] were 2 (2=21-40%) and 0 (0=0%), respectively.

On to `CC(=O)c1cccc2c1c(=O)c(C(=O)O)nn2-c1ccc(OC(F)(F)F)cc1` [Compound P10, 5-acetyl-4-oxo-1-[4-(trifluoromethoxy)phenyl] cinnoline-3-carboxylic acid], for which the results for the “percentage damage caused to the plant, ECHCG” value in experiment [1] and in experiment [4] were 4 (4=61-80%) and 5 (5=81-100%), respectively. For the same molecule, the “percentage damage caused to the plant, AMARE” value in [5] and in [12] was 1 (1=10-20%) each time. The “percentage damage caused to the plant, IPOHE” value in experiment [7] is on record as 0 (0=0%); in [8], 4 (4=61-80%). The “percentage damage caused to the plant, SETFA” value in the experiment on Setaria faberi (SETFA) [9] is given as 4 (4=61-80%); in the experiment on Setaria faberi (SETFA) [14], 5 (5=81-100%). Further, the “percentage damage caused to the plant, SOLNI” value in the experiment on Solarium nigrum (SOLNI) [10] is 1 (1=10-20%); with Solarium nigrum (SOLNI) [11] it was 4 (4=61-80%). Besides, the “percentage damage caused to the plant, LOLPE” value with Lolium perenne (LOLPE) [13] and in the experiment on Lolium perenne (LOLPE) [15] was 4 (4=61-80%) each time.

The values are drawn from US12649722B2, “Herbicidal cinnoline derivatives” (SYNGENTA CROP PROTECTION AG, priority 2020, dated 2026).
